# Reference: PubChem BioAssay AID463203 (Broad Institute, 2010)
# The source made the active and inactive calls.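 How the source made its calls: active means more than half of replicate measurements showing over 20% loss of kinase signal relative to plate controls; inconclusive means some but at most half of replicates over 20% loss; inactive means no replicate over 20% signal loss.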
# Target: Glycogen synthase kinase-3 alpha (Homo sapiens) (UniProt P49840)
# Experiment: concentration-response blocking of human GSK3A – biochemical, luminescence, cell-free homogeneous, retest, dose response (AID 463203)
# Settings: GSK-3 alpha enzyme, ADP-Glo luminescence, 60 min
# Chain of Glycogen synthase kinase-3 alpha (Homo sapiens) (P49840 whole entry, looked up): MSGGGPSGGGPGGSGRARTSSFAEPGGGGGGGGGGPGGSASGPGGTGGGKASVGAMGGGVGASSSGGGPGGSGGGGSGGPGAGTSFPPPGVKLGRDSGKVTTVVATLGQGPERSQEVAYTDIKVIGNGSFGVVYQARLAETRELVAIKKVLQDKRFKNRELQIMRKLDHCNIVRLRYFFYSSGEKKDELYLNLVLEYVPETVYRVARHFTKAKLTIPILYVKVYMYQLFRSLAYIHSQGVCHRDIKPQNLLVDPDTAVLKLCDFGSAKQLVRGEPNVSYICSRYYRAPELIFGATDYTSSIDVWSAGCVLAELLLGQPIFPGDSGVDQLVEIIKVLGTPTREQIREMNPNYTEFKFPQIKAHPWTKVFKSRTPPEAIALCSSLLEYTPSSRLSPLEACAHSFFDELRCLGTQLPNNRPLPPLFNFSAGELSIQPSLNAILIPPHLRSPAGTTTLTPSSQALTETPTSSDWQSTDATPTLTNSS
row,SMILES,AC50
1,COc1ccc2ccccc2c1C1CC(=O)N2CN(Cc3ccco3)CSC2=C1C#N (stereo not drawn),> 30 µM (inactive)
2,Cc1c(Nc2ncccc2C(=O)O)cccc1C(F)(F)F,> 30 µM (inactive)
3,CC(=O)Nc1ccc(Oc2ccc3c(c2)C(=O)NC3=O)cc1,25 µM
4,COc1ccc(S(=O)(=O)NCc2ccc(C(=O)N3CCC4(CC3)OCCO4)cc2)cc1,> 30 µM (inactive)
5,CC1(C)Cc2cccc(C(=O)NCc3ccco3)c2O1,> 30 µM (inactive)
6,CCCOC(=O)c1[nH]c2c(c1C)C(=O)CC(c1cc(OC)c(OC)c(OC)c1)C2 (stereo not drawn),> 30 µM (inactive)
7,Cc1ccc(CNc2nc(N)c([N+](=O)[O-])c(NCc3ccccc3)n2)cc1,> 30 µM (inactive)
8,O=c1ccc2ccccc2o1,> 30 µM (inactive)
9,Cc1ccc(Cn2cc(/C=N/Nc3ccc([N+](=O)[O-])cn3)c3ccccc32)cc1,> 30 µM (inactive)
10,COc1ccc(Cl)cc1Nc1nc(N)c2ccccc2n1,> 30 µM (inactive)
11,CCc1ccc(NC(=O)N[C@H](C(=O)O)C(C)CC)cc1 (stereo partly drawn),> 30 µM (inactive)
12,CCOCCCN(C(=O)c1snc(C(N)=O)c1N)C(C(=O)NC1CCCC1)c1ccc(O)cc1 (stereo not drawn),27 µM
13,CC(C)CCSc1cc(NCCO)c([N+](=O)[O-])c2nonc12,> 30 µM (inactive)
14,Oc1ccc2cccnc2c1,> 30 µM (inactive)
15,CCOc1ccccc1NC(=O)Nc1ccc(Cl)cc1,> 30 µM (inactive)
16,O=[N+]([O-])c1cnccc1NC1CCCCC1,> 30 µM (inactive)
17,COc1ccc(OC)c(C2CC(=O)N3CN(c4cccc(Cl)c4)CSC3=C2C#N)c1 (stereo not drawn),> 30 µM (inactive)
18,O=c1[nH]nc(SCc2nnc(-c3cccc(Cl)c3)o2)n1C1CCCCC1,> 30 µM (inactive)
19,Cc1ccc2cc(C#N)c(N3CCCN(C(=S)NCCCN(C)C)CC3)nc2c1,> 30 µM (inactive)
20,Oc1ccc(-c2nnc(-c3ccccc3)c(-c3ccccc3)n2)cc1,> 30 µM (inactive)
21,O=[N+]([O-])c1ccc(NCCCN2CCOCC2)c(Cl)c1,> 30 µM (inactive)
22,CC(=C/c1ccccc1)/C=N/NC(=O)c1nnn(-c2nonc2N)c1CN1CCC(C)CC1,> 30 µM (inactive)
23,O=C(Nc1ccccc1N1CCOCC1)c1cnccn1,28.6 µM
24,Oc1ccc2c(c1)oc1cc(O)ccc12,12 µM
25,O=C1NC(=O)/C(=C/c2ccc(O)cc2)S1,27.2 µM
26,O=C(Nc1nc2c(s1)CCCC2)c1ccc(Br)s1,> 30 µM (inactive)
27,COc1cccc(Nc2nc(N)c([N+](=O)[O-])c(NCc3ccccc3)n2)c1,13.4 µM

row,SMILES,AC50
1,CC(=O)c1cc(-c2ccc(F)cc2)n(CCC(=O)NC(C)(C)C)c1C,> 30 µM (inactive)
2,COc1ccc(-c2noc(CSc3nc(N)cc(=O)[nH]3)n2)cc1,> 30 µM (inactive)
3,COc1ccc(OC)c(C2=Nn3c(nnc3-c3ccncc3)SC2)c1,1.5 µM
4,O=c1cc(-c2ccccc2Cl)oc2c(NS(=O)(=O)c3cc(Cl)cc(Cl)c3O)ccc(O)c12,> 30 µM (inactive)
5,N#CC1=C(SCC(=O)c2ccccc2)NC2=C(C(=O)CCC2)C1c1ccco1 (stereo not drawn),> 30 µM (inactive)
6,CC(OC(=O)c1cccc(N2C(=O)c3ccccc3C2=O)c1)C(=O)Nc1ccc(N(C)C)cc1 (stereo not drawn),> 30 µM (inactive)
7,COc1cccc(CCNC(=O)c2cc(COc3c(F)cccc3F)on2)c1,> 30 µM (inactive)
8,CCOC(=O)N1CCC(N2CCN(S(=O)(=O)c3ccc(Cl)cc3)CC2)CC1,> 30 µM (inactive)
9,Cc1ccc(C(=O)N2NC(c3ccc(F)cc3)C3C(=O)N(c4ccc(C)cc4)C(=O)C32)cc1 (stereo not drawn),> 30 µM (inactive)
10,CCOC(=O)CC(C#N)c1c[nH]c2ccccc12 (stereo not drawn),> 30 µM (inactive)
11,CC(C)COC(=O)N1CCCC1C(=O)Nc1nccs1 (stereo not drawn),> 30 µM (inactive)
12,CCOc1cc2c(C#N)c(N3CCCC3)nc(N)c2c(N)n1,> 30 µM (inactive)
13,CC(=O)C(Sc1ccc2nnc(-c3ccc(C)cc3)n2n1)C(C)=O,> 30 µM (inactive)
14,CN(Cc1c(C(=O)N/N=C/c2cccc(O)c2)nnn1-c1nonc1N)c1ccccc1,2.8 µM
15,COc1ccc(N=c2oc3c(OC)cccc3cc2C(=O)NCc2ccco2)cc1OC,> 30 µM (inactive)
16,CCOc1ccc(N=C2NC(=O)SC2CC(=O)OC)cc1 (stereo not drawn),> 30 µM (inactive)
17,COc1ccc(C(=O)NCC(=O)N/N=C/C(C)=C/c2ccccc2)cc1OC,> 30 µM (inactive)
18,COCc1cc(C)nc(OCC(=O)N/N=C/c2ccc(O)cc2)c1C#N,13.3 µM
19,Cc1nc(C)c(C(=O)Nc2ncc([N+](=O)[O-])s2)o1,> 30 µM (inactive)
20,Cn1cnnc1SCC(=O)Nc1ncc([N+](=O)[O-])s1,> 30 µM (inactive)
21,Cc1ccc(C)c(Sc2ccc(NC(=O)CCl)cc2)c1,> 30 µM (inactive)
22,COCCNC(=O)c1ccc(Cn2c(=S)[nH]c3cc4c(cc3c2=O)OCO4)cc1,> 30 µM (inactive)
23,O=C(O)c1cccc2c1C(=O)c1ccc(Cl)cc1S2(=O)=O,> 30 µM (inactive)
24,N#CC1=C2SCN(Cc3ccco3)CN2C(=O)CC1c1ccccc1F (stereo not drawn),> 30 µM (inactive)
25,COc1cccc(Nc2nc(N)c([N+](=O)[O-])c(NCc3ccco3)n2)c1,5.75 µM
26,O=C(Nc1ccc(C(=O)NC2CCCCC2)cc1)c1cccnc1,> 30 µM (inactive)
